Literature values, collected in US20050136438A1, “Genetic analysis for stratification of cancer risk” (priority 2003, published 2005).
Counter-ions that a name gives are not always drawn.

Structure (SMILES): O=C(c1ccc(OCCN2CCCCC2)cc1)c1c(-c2ccc(O)cc2)sc2cc(O)ccc12 [Raloxifene HCl, methanone, [6-hydroxy-2-(4-hydroxyphenyl)benzo[b]thien-3-yl]-[4-[2-(1-piperidinyl)ethoxy]phenyl]-hydrochloride]
- solubility in water: very slightly soluble
